Experimental data published in US20240316087A1, “Compositions And Methods For Inducing Apoptosis In Anaerobic Cells And Related Clinical Methods For Treating Cancer And Pathogenic Infections” (priority 2017, published 2024).
Where two headings read alike, the source gives them in different places.

Key:
Stage IV cancer = tested on: Stage IV cancer
Procedure: A ten-year, multi-center cancer study was conducted wherein we recruited a total of 675 Stage IV cancer patients. These patients were treated and closely monitored through four participating medical and naturopathic clinics, with each clinic following standard therapeutic, monitoring and reporting protocols for each patient over a minimum study period of five years. The patients in these studies were all diagnosed by standard diagnostic methods (e.g., using tumor visualization, cytology, biopsy, blood assays for circulating tumor markers, etc.) at the start of the study as having Stage IV cancer, according to conventional diagnostic standards. Cancer types were grouped by primary cancer cytology/histochemistry, patient history and other standard criteria.
Of the 675 enrolled patients, 128 patients entered the study with diagnosed Stage IV breast cancer, 91 with Stage IV colon/rectal cancer, 34 with Stage IV head/neck cancer, 86 with Stage IV lung cancer, 32 with Stage IV non-Hodgkin's lymphoma (NHL), 28 with Stage IV melanoma, 36 with Stage IV ovarian cancer, 37 with Stage IV pancreatic cancer, 76 with Stage IV prostate cancer, 18 with Stage IV renal cancer, 23 with Stage IV sarcoma, and 34 with Stage IV uterine cancer.
Many of the enrolled subjects in this clinical study presented with Stage IV cancer that had persisted for many months, and in many cases years, following a prior Stage IV cancer diagnosis, and after having undergone one or more failed rounds of conventional oncotherapy (typically a combination of surgery, chemotherapy, radiation and/or hormonal therapy as indicated). These subjects are classified as “non-responsive” to conventional oncotherapy. A majority of the remaining study subjects enrolled in our study after an original Stage III or Stage IV cancer diagnosis, followed by conventional oncotherapy prior to the study, and presented at the time of study enrollment with disease progression to Stage IV cancer or with relapse of a prior, treated cancer. These subjects are classified as “treatment resistant” or “refractory” Stage IV cancer patients.
All patients remained throughout the study period in contact with medical providers who maintained regular monitoring of the subject's disease condition (with regular exams, including blood work testing for cancer markers, cytology, CT scans, PET scans, biopsy where indicated, and other diagnostic monitoring). Many of the study patients, while classified as having “treatment-resistant” Stage IV disease, nonetheless continued with some form of conventional oncotherapy (e.g., low dose chemotherapy) as recommended by their oncologist. […] About half of these subjects received conventional dose chemotherapy at some point, while the remainder received “low dose chemotherapy” (e.g., using a 10-15% dosing of a standard chemotherapeutic drug such as a taxane). […] Additionally, patients with breast cancer, ovarian cancer, uterine cancer and prostate cancer remained on any oncologist-prescribed hormonal therapy.
In certain cases, all 15 iv treatments were administered over a consecutive 15-day period, while in others the 15 iv treatments were scheduled over as much as a one-month period to accommodate patient scheduling factors.
All subjects were regularly examined for diagnostic cancer indicators, assessed according to standard methods.

[1] = tested on: alpha-N-acetylgalactosaminidase (nagalase); details: human, in vivo
NK cells = experiment: NK cell cancer-killing activity assay with immune cells from cancer patients; assay type: cell-based, human
Procedure: Immune cells were obtained from blood samples of 73 cancer patients. The capability of these immune cells to kill tumor cells in vitro was determined using a conventional cellular NK activity assay (Neri et al, Clin. Diagn. Lab. Immunol. 2001 November; 8(6): 1131-1135).
Control samples for these assays employed immune cells from patients diagnosed as having no detectable cancer. One exemplary test run (FIG. 4) compared nine patient samples side by side (samples 4 and 5 are controls, from patients with no cancer).

[2] = Stage IV Non-Hodgins Lymphoma, number of patients out of 32 studied
[3] = Stage IV breast cancer, number of patients out of 128 studied
[4] = Stage IV colon/rectal cancer, number of patients out of 91 studied
[5] = Stage IV head/neck cancer, number of patients out of 34 studied
[6] = Stage IV lung cancer, number of patients out of 86 studied
[7] = Stage IV melanoma, number of patients out of 29 studied
[8] = Stage IV non-Hodgkin's lymphoma
[9] = Stage IV ovarian cancer, number of patients out of 36 studied
[10] = Stage IV pancreatic cancer, number of patients out of 37 studied
[11] = Stage IV prostate cancer, number of patients out of 76 studied
[12] = Stage IV renal cancer, number of patients out of 18 studied
[13] = Stage IV sarcoma, number of patients out of 23 studied
[14] = Stage IV uterine cancer, number of patients out of 34 studied

4-(beta-D-allopyranosyloxy)-benzaldehyde [Salicinium]
therapeutic benefit (rates of stable disease, remission and survival) in smaller study groups (Stage IV cancer; 51 additional patients: ALL, AML, astrocytoma, bladder, CLL, esophageal, gall bladder, stomach, glioblastoma, Hodgkin's, liver, mesothelioma, myeloma, testicular, thyroid, five years): significant therapeutic benefits | Complete Remission, patient status through end of five year study period (Stage IV cancer; [2]): 6 | Not Surviving, patient status through end of five year study period (Stage IV cancer; [2]): 15 | Partial Remission, patient status through end of five year study period (Stage IV cancer; [2]): 5 | Stable Disease, patient status through end of five year study period (Stage IV cancer; [2]): 6 | five-year survival rate (Stage IV cancer; Stage IV breast cancer): 69% | patients with stable disease or in partial remission at end of five-year study (Stage IV cancer; Stage IV breast cancer): 53% | increase in five-year survival expectancy versus NIH median (Stage IV cancer; Stage IV breast cancer, from 16% (NIH median) to 69%): greater than four-fold increase | Complete Remission, patient status through end of five year study period (Stage IV cancer; [3]): 21 | Not Surviving, patient status through end of five year study period (Stage IV cancer; [3]): 39 | Partial Remission, patient status through end of five year study period (Stage IV cancer; [3]): 30 | Stable Disease, patient status through end of five year study period (Stage IV cancer; [3]): 38 | patients in complete remission at end of five-year study (Stage IV cancer; Stage IV breast cancer, of 128 enrolled): 16% | patients in total remission (Stage IV cancer; Stage IV colon/rectal cancer): 5% | patients surviving with stable disease or partial remission (Stage IV cancer; Stage IV colon/rectal cancer): 56% | total five-year survival percentage (Stage IV cancer; Stage IV colon/rectal cancer, 91 patients): 61% | survival versus NIH median survival (Stage IV cancer; Stage IV colon/rectal cancer, NIH median 8-15% (average 11.5%)): more than five-times greater | Complete Remission, patient status through end of five year study period (Stage IV cancer; [4]): 5 | Not Surviving, patient status through end of five year study period (Stage IV cancer; [4]): 35 | Partial Remission, patient status through end of five year study period (Stage IV cancer; [4]): 15 | Stable Disease, patient status through end of five year study period (Stage IV cancer; [4]): 36 | five-year survival (Stage IV cancer; Stage IV head/neck cancer): 53% | subjects in complete remission (Stage IV cancer; Stage IV head/neck cancer): 12% | subjects stable or in partial remission (Stage IV cancer; Stage IV head/neck cancer): 41% | Complete Remission, patient status through end of five year study period (Stage IV cancer; [5]): 4 | Not Surviving, patient status through end of five year study period (Stage IV cancer; [5]): 16 | Partial Remission, patient status through end of five year study period (Stage IV cancer; [5]): 0 | Stable Disease, patient status through end of five year study period (Stage IV cancer; [5]): 14 | five-year survival (Stage IV cancer; Stage IV lung cancer): 62% | patients stable or in partial remission (Stage IV cancer; Stage IV lung cancer): 56% | total remission rate (Stage IV cancer; Stage IV lung cancer): 6% | increase in survival expectancy compared to NIH published data (Stage IV cancer; Stage IV lung cancer, NIH median survival 50%): > 10% | Complete Remission, patient status through end of five year study period (Stage IV cancer; [6]): 5 | Not Surviving, patient status through end of five year study period (Stage IV cancer; [6]): 33 | Partial Remission, patient status through end of five year study period (Stage IV cancer; [6]): 10 | Stable Disease, patient status through end of five year study period (Stage IV cancer; [6]): 38 | five-year survival (Stage IV cancer; Stage IV melanoma): 52% | increase in patient survival over median survival (Stage IV cancer; Stage IV melanoma, NIH 15-20%, average 17.5%): about a three-fold increase | Complete Remission, patient status through end of five year study period (Stage IV cancer; [7]): 0 | Not Surviving, patient status through end of five year study period (Stage IV cancer; [7]): 14 | Partial Remission, patient status through end of five year study period (Stage IV cancer; [7]): 8 | Stable Disease, patient status through end of five year study period (Stage IV cancer; [7]): 7 | five-year survival (Stage IV cancer; [8]): 53% | subjects in total remission (Stage IV cancer; [8]): 19% | subjects stable or in partial remission (Stage IV cancer; [8]): 34% | overall five-year survival rate (Stage IV cancer; Stage IV ovarian cancer): 55% | subjects in complete remission at end of study (Stage IV cancer; Stage IV ovarian cancer): More than 10% | survival versus NIH median survival (Stage IV cancer; Stage IV ovarian cancer, NIH median 17%): more than three times | Complete Remission, patient status through end of five year study period (Stage IV cancer; [9]): 4 | Not Surviving, patient status through end of five year study period (Stage IV cancer; [9]): 16 | Partial Remission, patient status through end of five year study period (Stage IV cancer; [9]): 5 | Stable Disease, patient status through end of five year study period (Stage IV cancer; [9]): 11 | five-year survival rate (Stage IV cancer; Stage IV pancreatic cancer): 46% | survival versus median survival expectancy (Stage IV cancer; Stage IV pancreatic cancer, NIH median 4%): more than 11 times | Complete Remission, patient status through end of five year study period (Stage IV cancer; [10]): 0 | Not Surviving, patient status through end of five year study period (Stage IV cancer; [10]): 20 | Partial Remission, patient status through end of five year study period (Stage IV cancer; [10]): 0 | Stable Disease, patient status through end of five year study period (Stage IV cancer; [10]): 17 | five-year survival (Stage IV cancer; Stage IV prostate cancer): 78% | patients in total disease remission (Stage IV cancer; Stage IV prostate cancer): 20% | patients surviving in stable or partial remission status (Stage IV cancer; Stage IV prostate cancer): 58% | survival versus NIH published median survival (Stage IV cancer; Stage IV prostate cancer, NIH median 33%): more than double | Complete Remission, patient status through end of five year study period (Stage IV cancer; [11]): 15 | Not Surviving, patient status through end of five year study period (Stage IV cancer; [11]): 16 | Partial Remission, patient status through end of five year study period (Stage IV cancer; [11]): 23 | Stable Disease, patient status through end of five year study period (Stage IV cancer; [11]): 22 | five-year survival (Stage IV cancer; Stage IV renal cancer): 56% | subjects in total remission (Stage IV cancer; Stage IV renal cancer): 17% | subjects stable or in partial remission (Stage IV cancer; Stage IV renal cancer): 39% | Complete Remission, patient status through end of five year study period (Stage IV cancer; [12]): 3 | Not Surviving, patient status through end of five year study period (Stage IV cancer; [12]): 8 | Partial Remission, patient status through end of five year study period (Stage IV cancer; [12]): 0 | Stable Disease, patient status through end of five year study period (Stage IV cancer; [12]): 7 | five-year survival (Stage IV cancer; Stage IV sarcoma): 48% | subjects in total remission (Stage IV cancer; Stage IV sarcoma): 9% | subjects stable or in partial remission (Stage IV cancer; Stage IV sarcoma): 39% | Complete Remission, patient status through end of five year study period (Stage IV cancer; [13]): 2 | Not Surviving, patient status through end of five year study period (Stage IV cancer; [13]): 12 | Partial Remission, patient status through end of five year study period (Stage IV cancer; [13]): 2 | Stable Disease, patient status through end of five year study period (Stage IV cancer; [13]): 7 | five-year survival (Stage IV cancer; Stage IV uterine cancer): 47% | subjects in total remission (Stage IV cancer; Stage IV uterine cancer): 5% | subjects stable or in partial remission (Stage IV cancer; Stage IV uterine cancer): 41% | Complete Remission, patient status through end of five year study period (Stage IV cancer; [14]): 2 | Not Surviving, patient status through end of five year study period (Stage IV cancer; [14]): 18 | Partial Remission, patient status through end of five year study period (Stage IV cancer; [14]): 4 | Stable Disease, patient status through end of five year study period (Stage IV cancer; [14]): 10 | median nagalase level [1]: 0.78 Units | patients with pronounced reductions in nagalase levels [1]: 83% | study patients with nagalase levels below 0.95 Units (normal range) [1]: 86% | study patients with nagalase levels below 1.0 units [1]: 72% | average increase in NK cell cancer-killing activity compared to basal (NK cells; cumulative samples (73 cancer patients), helicidum 0.5 mg/ml, 24 hours): 2.6 times | increase in NK cell cancer-killing activity above basal activity (NK cells; exemplary test run, FIG. 4, cancer patient samples, helicidum 0.5 mg/ml, 24 hours): from about 50% to 2- or 3-fold, up to about 4-fold or higher | increase in NK cell activity in control samples (NK cells; immune cells from patients with no detectable cancer, Salicinium present): little or no increase in NK cell activity
